From PMC9268429, “Liposomal Form of 2,4-Dinitrophenol Lipophilic Derivatives as a Promising Therapeutic Agent for ATP Synthesis Inhibition” (Nanomaterials, 2022) come the findings set out here.

“Also recorded” adds a separate entry of the source. Where two headings read alike, the source gives them in different places.

Data set [1] deals with 4T1-Luc cells. It is filed as cell-based, murine. To be noted: 200 µM, 1% DMSO; for ATP synthesis inhibition (decrease of luminescence): free compounds, 2 h and 4 h. As to the method: ATP synthesis in real time in vitro was monitored by modified luciferin–luciferase assay using 4T1-Luc cells expressing luciferase. Briefly, 4T1-Luc cells were seeded in black 96-well plates (Greiner, France) (1 × 10^4 cells/well) 48 h before the experiment. Cell medium was replaced with the mixtures (150 µL/well) of D-luciferin (150 µg/mL, saturating concentration) alone (control) and with examined substance (200 µM of free 2,4-DNP or its derivatives or their liposomal forms) in RPMI 1640 medium (10% FBS, 4.5 g/L glucose, 100 U/mL penicillin, 100 µg/mL streptomycin и 0.25 µg/mL Gibco amphotericin), plate was put into the Luminometer chamber (EnSpire multimode plate reader, Perkin Elmer, USA), and kinetic of luciferin–luciferase reaction was detected at 37 °C (flashes/time 0.1 s). 2,4-DNP esters were dissolved in DMSO before the use. The total concentration of DMSO in final solution per well was 1%.
The inhibition effect was expressed as (3) Decrease of luminescence=[RLU]max−[RLU]t/[RLU]max×100%, where [RLU]max—relative luminescence units at the maximum of the kinetic profile; [RLU]t—relative luminescence units at certain time point.

For data set [2], the system named is 4T1-Luc cells. Put plainly: cells. It is filed as cell-based, murine. The note with it: Mus musculus, read-out: IC50 (cytotoxicity). As to the method: (§1) Murine breast cancer cell line expressing luciferase (4T1-Luc) and hepatocytes isolated from the normal liver of a 3-month-old mouse (AML12) were purchased from ATCC, (CRL-2539-LUC2 and CRL-2254). The cells were cultivated in RPMI 1640 or DMEM-F12 with 10% FBS, 4.5 g/L glucose, 100 U/mL penicillin, 100 µg/mL streptomycin and 0.25 µg/mL Gibco amphotericin at 37 °C, 5% CO2.
(§2) 4T1-Luc or AML12 cells were seeded in a 96-well plate (1 × 10^4 cells/well) in 200 µL/well of complete RPMI or DMEM-F12 medium and incubated at 37 °C with 5% CO2 for 48 h. Then, the medium was replaced with 100 µL/well RPMI or DMEM-F12 medium in the absence (control) or presence of various amounts of the tested compounds and incubated at 37 °C with 5% CO2 for 24 h; 10 µL/well WST-1 solution (CELLPRO-RO Roche, St. Louis, MO, USA) was added to each well and incubated under culture conditions for 2 h. The absorbance of the samples was measured at 450 nm.

A short description of a further data set: in vitro. It is filed as cell-based, mouse. The note with it: mouse; AML12, 24 h incubation, WST-1, free compounds in 1% DMSO; read-out: IC50 (cytotoxicity). As to the method:
as §1, §2
(In general: Tetrazolium assays rely on reduction of a dye to a coloured formazan, in cell work by metabolically active cells.)

The target of another data set is luciferase (Photinus pyralis, UniProt P08659). The experiment in a line: Control: addition to the luciferin–luciferase mixture. It is filed as biochemical. The note with it: 200 µM added to the luciferin–luciferase mixture; data are not presented.
Chain of luciferase (P08659 whole entry): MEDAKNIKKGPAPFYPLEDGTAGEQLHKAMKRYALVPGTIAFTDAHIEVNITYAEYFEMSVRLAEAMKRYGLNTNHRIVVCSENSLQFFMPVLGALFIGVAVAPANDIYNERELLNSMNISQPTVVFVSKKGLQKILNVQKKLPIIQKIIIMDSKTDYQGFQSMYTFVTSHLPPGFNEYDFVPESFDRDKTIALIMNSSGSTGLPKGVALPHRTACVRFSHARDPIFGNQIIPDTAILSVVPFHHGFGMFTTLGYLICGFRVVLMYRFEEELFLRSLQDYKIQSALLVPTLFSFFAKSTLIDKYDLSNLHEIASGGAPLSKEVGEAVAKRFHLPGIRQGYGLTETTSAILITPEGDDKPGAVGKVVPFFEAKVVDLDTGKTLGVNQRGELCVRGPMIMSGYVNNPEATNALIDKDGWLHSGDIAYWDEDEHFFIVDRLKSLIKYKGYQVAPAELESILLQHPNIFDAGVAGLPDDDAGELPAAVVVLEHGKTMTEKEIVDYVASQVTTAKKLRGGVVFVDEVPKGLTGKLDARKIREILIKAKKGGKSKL
The format of data set [3] is physicochemical. To be noted: octanol/distilled water (pH 5.5), mean ± StD. As to the method:
Lipophilicity of the obtained 2,4-DNP derivatives was measured by octanol–water equilibrium method. Before the experiment, we mixed octanol and water in a flask, shook it vigorously, and then waited for the two phases separation. After reaching of equilibrium, the two phases are mutually saturated with one another. Next, 0.5 mg of each test compound was dissolved in 1 mL of octanol phase, and then 1 mL of distillated water phase was added (pH 5.5) and properly stirred for 1 min three times. The mixture was incubated under vigorous stirring for 1 h. Next, the mixture was centrifugated to separate octanol–water phases. The concentration of the compound was determined in octanol and water using HPLC method. The octanol–water partition coefficient was estimated as follows:(1) LogP=Log[C]octanol/[C]water
Concentration of 2,4-DNP and its esters was measured using high-performance liquid chromatography (HPLC) (Knauer Smart line, Berlin, Germany) with UV-detector and a reversed-phase shim-pack 100-5-C18 column (Kromasil, […], particle size 5 μm). The mobile phase was a mixture of acetonitrile and 0.1% citric acid water solution (60/40, v/v). The mobile phase flow-rate was 0.8 mL/min, the injection volume was […], and the detection wavelength was set at 275 nm. Chromatograms were analyzed using ChromGate version 3.3.2 software (Berlin, Germany). The retention time is 4.5 min for 2,4-DNP and 6.5 min for esters.

The conditions of data set [4]: pH 7.4.
Procedure: Procedure: All samples were dispersed in 10 mM PBS (pH = 7. 4). Then the aliquots were incubated at a room tempera-
ture and at 65 °C for 1 h. After that we made several TLC for each sample representing heated and non-heated sub-
For another data set, the system named is AML12 cells. Put plainly: in vitro. To be noted: AML12, 24 h incubation, WST-1, free compounds in 1% DMSO; read-out: IC50 (cytotoxicity). It is filed as cell-based, mouse. As to the method: as §1, §2

As for `CCC(=O)O` [propionic acid, Propionic acid, reference compound], the “ATP level after free carboxylic acids” value with 4T1-Luc cells [1] is “did not show an increase in the ATP level”.
The same measure, in the same setting: the entry for `CCCCCCCCCCCCCCCC(=O)O` [palmitic acid, Palmitic acid, reference compound] is “did not show an increase in the ATP level”.
The IC50 is the concentration at which inhibition is half-maximal. Take `O=[N+]([O-])c1ccc(O)c([N+](=O)[O-])c1` [2,4-DNP, 2,4-dinitrophenol]: the IC50 in the data set with 4T1-Luc cells [2] (24 h) was around 400 µM. Also, in the data set “in vitro”, the IC50 at 24 h was in the range of 500 to 600 µM. The Luciferase activity entry on luciferase is “did not influence the luciferase activity”. In data set [3], this compound returned a LogPoct of 1.61 ± 0.30.
In the case of `CCCCCC(=O)O` [caproic acid, Hexanoic acid, reference compound], the “ATP level after free carboxylic acids” value with 4T1-Luc cells [1] was “did not show an increase in the ATP level”.
With `CCC(=O)Oc1ccc([N+](=O)[O-])cc1[N+](=O)[O-]` [2,4-DNP-C3, 2,4-Dinitrophenol Propionic Acid Ester], the “Ester stability (hydrolysis)” value in data set [4] is given as “most unstable ester”. For the same compound, the “ATP synthesis inhibition (decrease of luminescence)” value in the data set with 4T1-Luc cells [1] is recorded as “higher inhibition effects in comparison to the free 2,4-DNP”. Moreover, the IC50 in the data set on AML12 cells was around 200 µM. Moreover, the LogPoct in data set [3] is on record as 1.91 ± 0.24.
As for `CCCCCCCCCCCCCCCC(=O)Oc1ccc([N+](=O)[O-])cc1[N+](=O)[O-]` [2,4-DNP-C16, 2,4-DNP Palmitic Acid Ester], the IC50 is 100 to 150 µM in the data set on 4T1-Luc cells [2] (24 h incubation, WST-1, free compounds in 1% DMSO) and around 200 µM in “in vitro”. Also, the “ATP synthesis inhibition (decrease of luminescence)” value in the data set on 4T1-Luc cells [1] is “neglectable decrease in the ATP level”. Moreover, the LogPoct in data set [3] amounted to 5.18 ± 0.79.
With `CCCCCC(=O)Oc1ccc([N+](=O)[O-])cc1[N+](=O)[O-]` [2,4-DNP-C6, 2,4-Dinitrophenol Caproic Acid Ester], in the data set on 4T1-Luc cells [1], the “ATP synthesis inhibition (decrease of luminescence)” value is recorded as “higher inhibition effects in comparison to the free 2,4-DNP; also recorded: sustained inhibition of ATP synthesis”. For the same compound, the IC50 in the data set on AML12 cells is around 200 µM. This compound also had a LogPoct in data set [3] of 3.07 ± 0.31.
